# Source: patent US20250289807A1, “Inhibitors of ROCK2” (Graviton Bioscience BV, priority 2022, published 2025)
# Tests used:
# [1] = molecular target: ROCK1 (Homo sapiens (Human), UniProt Q13464); test: ADP-Glo kinase assay, ROCK1; assay type: biochemical; details: 10 μM ATP, 170 μM S6K substrate, 120 min
# Method: (§1) ADP-Glo kinase assay (Promega). The ADP-Glo™ Kinase Assay is a luminescent ADP detection assay that allows measurement of kinase activity based on the amount of ADP produced during a kinase reaction. The kinase reaction is performed in the presence of ATP, S6K substrate ([…]) and the ROCK kinase in the appropriate Kinase Reaction Buffer (1×). Upon termination of the reaction, the unconsumed ATP is depleted by addition of ADP-Glo™ Reagent. Next, Kinase Detection Reagent is added to convert ADP to ATP and allow the newly synthesized ATP to be measured using a luciferase/luciferin reaction. The luminescence is proportional to the produced ADP and consequently to the kinase activity. The ADP-Glo™ Kinase Assay was performed in a 384 well plate format as follows.
# (§2) Kinase Detection Reagent Preparation: The Kinase Detection Buffer was thawed at room temperature (RT). If a precipitate was present, the buffer was incubated at 37° C. with constant swirling for 15 minutes to dissolve the precipitate or the precipitate was removed from the buffer by carefully pipetting the supernatant from the bottle. After equilibrating both the Kinase Detection Buffer and Kinase Detection Substrate to room temperature, the entire volume of Kinase Detection Buffer was transferred into the bottle containing Kinase Detection Substrate to reconstitute the lyophilized substrate, followed by gentile mixing to obtain a homogeneous solution.
# (§3) Kinase Reaction Buffer Preparation: Kinase reaction buffer was prepared freshly before each experiment.
# (§4) ADP-Glo Reagents Preparation. Three mixes were prepared on ice before running the assay: • Mix 1—containing ROCK1 or ROCK2 in Kinase Reaction Buffer (1×) • Mix 2—containing S6K peptide in Kinase Reaction Buffer (1×) • Mix 3—containing ATP in Kinase Reaction Buffer (1×)
# (§5) The ratios of reagent volumes in the assay were 1:1:2 of kinase reaction to ADP-Glo™ Reagent to Kinase Detection Reagent. For 384-well plates, volumes were: 5 μl of kinase reaction, 5 μl of ADP-Glo™ Reagent and 10 μl of Kinase Detection Reagent.
# (§6) Generating a standard curve for conversion of ATP to ADP. To estimate the amount of ADP produced in the kinase reaction, a standard curve that represents the luminescence corresponding to the conversion of ATP to ADP was prepared based on the ATP concentration used in the kinase reaction. These conversion curves represent the amounts of ATP and ADP available in a reaction at the specified conversion percentage ranging from 100% conversion to 0% conversion. The standard samples used to generate an ATP-to-ADP conversion curve are created by combining the appropriate volumes of ATP and ADP stock solutions.
# (§7) Each plate contained a positive control (1 μM Comp. A for ROCK2 and 1 μM RKI-1447 for ROCK1); a vehicle control (1% DMSO); a blank control (kinase reaction buffer (1×)); a low control (substrate and ATP, without kinase); and an autophosphorylation control (kinase and ATP, without substrate). Test and reference compounds were diluted in 100% DMSO to obtain 10 mM stock solutions. Each compound was tested in 8-serial dilutions in duplicate. The final concentration of DMSO in the reaction was 1% (up to 50 nL).
# (§8) 5 μl/well Kinase Reaction Buffer (1×) was dispensed to blank control wells. 2 μl/well Kinase Reaction Buffer (1×) was dispensed to control without protein (low control) and without substrate (autophosphorylation) wells. The plate was sealed with adhesive film followed by a short spin (1 min, 1000 rpm).
# (§9) 2 μl/well kinase (2.5×) solution was dispensed into relevant wells of the assay plate. The plate was sealed with adhesive film followed by a short spin (1 min, 1000 rpm).
# (§10) The plate was sealed with adhesive film followed by a short spin (1 min, 1000 rpm).
# (§11) 1 μl/well ATP (5×) solution was dispensed into relevant wells of the assay plate. The final volume of reaction was […]. The plate was sealed with adhesive film followed by a short spin (1 min, 1000 rpm).
# [2] = Kinetic solubility; assay type: physicochemical; details: kinetic from dmso stock
# [3] = molecular target: ROCK2 (Homo sapiens (Human), UniProt O75116); test: ADP-Glo kinase assay, ROCK2; assay type: biochemical; details: 40 μM ATP, 170 μM S6K substrate, 120 min
# ROCK2, sequence (O75116 whole entry): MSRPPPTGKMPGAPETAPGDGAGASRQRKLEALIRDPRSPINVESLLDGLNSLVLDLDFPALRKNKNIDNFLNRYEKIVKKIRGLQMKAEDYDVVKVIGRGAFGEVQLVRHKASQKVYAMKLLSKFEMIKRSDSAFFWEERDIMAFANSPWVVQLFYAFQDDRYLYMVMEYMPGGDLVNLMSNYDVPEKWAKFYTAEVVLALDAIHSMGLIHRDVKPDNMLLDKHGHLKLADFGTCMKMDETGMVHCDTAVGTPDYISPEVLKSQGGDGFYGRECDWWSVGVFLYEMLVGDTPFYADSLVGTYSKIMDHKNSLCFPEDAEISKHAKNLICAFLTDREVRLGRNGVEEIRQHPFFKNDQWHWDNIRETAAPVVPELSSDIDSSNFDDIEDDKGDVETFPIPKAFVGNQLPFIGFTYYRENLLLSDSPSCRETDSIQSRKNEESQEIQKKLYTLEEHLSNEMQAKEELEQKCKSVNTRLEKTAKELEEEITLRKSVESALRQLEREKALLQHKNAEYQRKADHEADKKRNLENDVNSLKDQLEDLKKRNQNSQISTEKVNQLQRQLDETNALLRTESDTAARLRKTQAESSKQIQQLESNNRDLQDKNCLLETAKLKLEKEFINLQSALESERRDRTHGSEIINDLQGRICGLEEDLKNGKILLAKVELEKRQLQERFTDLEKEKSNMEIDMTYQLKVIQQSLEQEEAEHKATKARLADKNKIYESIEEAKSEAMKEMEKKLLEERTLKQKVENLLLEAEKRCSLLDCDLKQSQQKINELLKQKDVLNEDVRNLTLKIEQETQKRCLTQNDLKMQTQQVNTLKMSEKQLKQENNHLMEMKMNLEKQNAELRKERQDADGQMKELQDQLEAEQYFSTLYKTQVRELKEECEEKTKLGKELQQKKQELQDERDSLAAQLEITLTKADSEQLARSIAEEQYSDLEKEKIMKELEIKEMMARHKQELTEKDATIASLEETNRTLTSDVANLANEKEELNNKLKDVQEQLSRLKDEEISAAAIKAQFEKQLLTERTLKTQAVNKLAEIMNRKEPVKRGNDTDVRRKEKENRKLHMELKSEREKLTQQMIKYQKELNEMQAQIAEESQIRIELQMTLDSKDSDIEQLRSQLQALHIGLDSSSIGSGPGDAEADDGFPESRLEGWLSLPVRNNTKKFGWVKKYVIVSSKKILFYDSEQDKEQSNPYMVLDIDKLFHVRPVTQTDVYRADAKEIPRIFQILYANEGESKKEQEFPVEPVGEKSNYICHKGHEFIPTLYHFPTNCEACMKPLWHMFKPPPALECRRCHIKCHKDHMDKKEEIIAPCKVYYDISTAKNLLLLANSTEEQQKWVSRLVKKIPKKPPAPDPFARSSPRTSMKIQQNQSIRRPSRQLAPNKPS
# Method: as §1, §2, §3, §4, §5, §6, §7, §8, §9, §10, §11
# [4] = test system: pCofilin in human CD4+ T cells; test: pCofilin in human CD4+ T cells (Western Blot); assay type: cell-based; details: stimulated 2 hours, FIG. 4
# Method: (§12) In these studies, peripheral blood CD4^+ T cells were treated with indicated doses of inhibitors and then stimulated by anti-CD3/28 mAbs, IL-1β (50 ng/mL) and TGF-β (5 ng/mL) for 2 hours. The cell lysates were prepared and analyzed by Western Blot. One representative of three different experiments is shown.
# [5] = test system: Human subcutaneous adipocytes; test: Adipogenesis in primary human adipocytes (Oil Red staining); assay type: cell-based; details: adipogenic cocktail, 10 days, Oil Red absorbance, FIG. 7
# Method: Adipogenesis is a multi-step complex process, progressing from precursor stem cells to adipocytes that synthesize and store fat. […] ROCKs have been implicated in regulation of adipocyte differentiation, however the isoform-specific contribution to adipogenesis and other metabolic pathways is not well characterized. […] In this study, Human subcutaneous adipocytes were grown to confluence before induction to differentiation by adipogenic cocktail (0.1 μM dexamethasone, 1 μM insulin, 200 μM indomethacin, 250 μM isobutyl methylxanthine (IBMX)) in the presence of indicated concentrations of Ex. 1 or Ex. 2 for 10 days. Differentiated cells were stained by Oil Red which was extracted by isopropanol and measured by absorbance at 492 nm.
# [6] = test system: human lung fibroblast MRC-5 cells; test: TGF-β-induced pro-fibrogenic gene expression in MRC-5 fibroblasts (RT-PCR); assay type: cell-based; details: MRC-5, TGF-β1 2.5 ng/mL, 48 hours, FIG. 5
# Method: (§13) ROCKs are activated by small GTPase Rho in response to a variety of profibrotic signals and regulate cytoskeletal dynamics, activation of different down-stream intracellular targets and expression of key profibrotic genes, such as fibronectin, smooth muscle actin (α-SMA) and collagen 3 (Col3A1).
# (§14) In these studies, human lung fibroblast MRC-5 cells were acquired from American Type Culture Collection (ATCC) and cultured in MEM supplemented with 10% fetal bovine serum. The cells were seeded in 24-well cell culture plates at 50,000/mL/well. On the following day, the cells were starved in MEM containing 0.5% FBS for overnight. […] Cellular mRNA was isolated and mRNA expression of indicated genes (fibronectin, αSMA and col3A) was analyzed by RT-PCR (FIG. 5). Secreted pro-collagen 1a (Col1A1) in supernatants was measured by ELISA (FIG. 6).
# [7] = test system: human lung fibroblast MRC-5 cells; test: Col1A protein secretion in MRC-5 supernatants (ELISA); assay type: cell-based; details: MRC-5, TGF-β1 2.5 ng/mL, 48 hours, FIG. 6
# Method: as §13, §14
# [8] = test system: IL-17 secretion in human CD4+ T cells; test: IL-17 secretion in Th17-skewed human CD4+ T cells (ELISA); assay type: cell-based; details: anti-CD3/28 mAbs, IL-1β (50 ng/mL) and TGF-β (5 ng/mL), 48 hours
# Method: In this study, peripheral blood CD4^+ T cells were treated with the indicated doses of the ROCK2 inhibitors and then stimulated by anti-CD3/28 mAbs, IL-1β (50 ng/mL) and TGF-β (5 ng/mL) for 48 hours. The supernatants were analyzed for IL-17 by ELISA. One representative of three different experiments is shown.
# [9] = test system: STAT3 phosphorylation in human CD4+ T cells; test: STAT3 phosphorylation in Th17-skewed human CD4+ T cells (Western Blot); assay type: cell-based; details: stimulated 2 hours, FIG. 3
# Method: as §12
# ROCK1, sequence (Q13464 whole entry): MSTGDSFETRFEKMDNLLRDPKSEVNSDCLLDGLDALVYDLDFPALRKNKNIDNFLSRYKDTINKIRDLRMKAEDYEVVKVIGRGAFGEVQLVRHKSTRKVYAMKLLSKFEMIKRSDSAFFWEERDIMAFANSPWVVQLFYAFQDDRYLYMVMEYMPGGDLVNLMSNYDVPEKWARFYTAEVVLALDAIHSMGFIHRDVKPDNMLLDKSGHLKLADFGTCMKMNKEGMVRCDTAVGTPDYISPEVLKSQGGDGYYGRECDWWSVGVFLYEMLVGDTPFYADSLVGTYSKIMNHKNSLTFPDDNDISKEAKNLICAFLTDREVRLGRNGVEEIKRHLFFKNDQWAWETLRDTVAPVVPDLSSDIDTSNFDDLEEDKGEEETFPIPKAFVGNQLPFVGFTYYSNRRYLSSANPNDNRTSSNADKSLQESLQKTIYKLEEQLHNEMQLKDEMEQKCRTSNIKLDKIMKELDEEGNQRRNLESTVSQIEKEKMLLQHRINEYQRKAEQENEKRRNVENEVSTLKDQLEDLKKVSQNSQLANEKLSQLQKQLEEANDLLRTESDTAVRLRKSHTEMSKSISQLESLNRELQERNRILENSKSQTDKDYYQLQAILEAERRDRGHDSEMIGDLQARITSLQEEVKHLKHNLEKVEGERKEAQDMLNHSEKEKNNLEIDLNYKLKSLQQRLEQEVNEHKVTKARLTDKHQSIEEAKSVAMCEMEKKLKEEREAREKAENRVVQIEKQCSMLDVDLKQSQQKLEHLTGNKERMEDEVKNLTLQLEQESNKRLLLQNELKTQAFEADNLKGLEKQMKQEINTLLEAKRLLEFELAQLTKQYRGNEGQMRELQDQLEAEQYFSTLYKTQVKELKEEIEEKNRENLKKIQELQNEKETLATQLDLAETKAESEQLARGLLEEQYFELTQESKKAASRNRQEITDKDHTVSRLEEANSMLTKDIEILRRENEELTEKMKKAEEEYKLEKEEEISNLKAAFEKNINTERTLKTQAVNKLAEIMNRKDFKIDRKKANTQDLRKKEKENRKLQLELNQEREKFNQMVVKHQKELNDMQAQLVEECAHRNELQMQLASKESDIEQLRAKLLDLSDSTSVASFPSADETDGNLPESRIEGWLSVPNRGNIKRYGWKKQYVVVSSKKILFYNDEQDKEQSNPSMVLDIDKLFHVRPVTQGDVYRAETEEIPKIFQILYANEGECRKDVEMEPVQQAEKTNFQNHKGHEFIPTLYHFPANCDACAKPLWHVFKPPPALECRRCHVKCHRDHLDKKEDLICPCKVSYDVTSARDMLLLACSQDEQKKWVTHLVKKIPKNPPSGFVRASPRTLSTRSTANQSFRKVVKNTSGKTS
Compound,IC50 [1],IC50 [3],other results
"Cn1c(C(=O)N2CC(F)(F)C2)cc2ccc(-c3nccc(Nc4ccc(-c5cn[nH]c5)cc4)n3)cc21 [Comp. A, reference compound]",3210 nM,2.29 nM,solubility kinetic [2]: < 1.9 µg/mL
"Cn1c(C(=O)N2CC(F)(F)C2)cc2ccc(-c3nccc(Nc4ccc(-c5cnc[nH]5)cc4)n3)cc21 [Example 1, 2-[2-(3,3-difluoroazetidine-1-carbonyl)-1-methyl-1H-indol-6-yl]-N-[4-(1H-imidazol-5-yl)phenyl]pyrimidin-4-amine]",> 50000 nM,–,pCofilin [4]: down-regulate pCofilin; adipogenesis [5]: down-regulate adipogenesis in a dose-dependent manner; TGF-β-induced Col3A1 gene expression [6]: down-regulate dose-dependently; TGF-β-induced fibronectin gene expression [6]: down-regulate dose-dependently; TGF-β-induced α-SMA gene expression [6]: down-regulate dose-dependently; Col1A protein production in supernatants [7]: down-regulate dose-dependently; solubility kinetic [2]: 2.2 µg/mL; EC50 [8]: 838 nM; STAT3 phosphorylation induced by Th17-skewing activation [9]: down-regulate STAT3 phosphorylation
"Cn1c(C(=O)N2CC(F)(F)C2)cc2ccc(-c3nccc(Nc4ccc(-c5c[nH]nn5)cc4)n3)cc21 [Example 2, 2-[2-(3,3-difluoroazetidine-1-carbonyl)-1-methyl-1H-indol-6-yl]-N-[4-(1H-1,2,3-triazol-4-yl)phenyl]pyrimidin-4-amine]",> 50000 nM,–,pCofilin [4]: down-regulate pCofilin; adipogenesis [5]: down-regulate adipogenesis in a dose-dependent manner; TGF-β-induced Col3A1 gene expression [6]: down-regulate dose-dependently; TGF-β-induced fibronectin gene expression [6]: down-regulate dose-dependently; TGF-β-induced α-SMA gene expression [6]: down-regulate dose-dependently; Col1A protein production in supernatants [7]: down-regulate dose-dependently; solubility kinetic [2]: 2.69 µg/mL; EC50 [8]: 764 nM; STAT3 phosphorylation induced by Th17-skewing activation [9]: down-regulate STAT3 phosphorylation
"O=C(c1cc2c(s1)CN(c1nccc(Nc3ccc(-c4c[nH]nn4)cc3)n1)CC2)N1CC(F)(F)C1 [Example 3′, 2-[2-(3,3-difluoroazetidine-1-carbonyl)-4H,5H,6H,7H-thieno[2,3-c]pyridin-6-yl]-N-[4-(1H-1,2,3-triazol-4-yl)phenyl]pyrimidin-4-amine]",2730 nM,961 nM,–
CN(C)C(=O)Cn1c(C(=O)N2CC(F)(F)C2)cc2ccc(-c3nccc(Nc4ccc(-c5cnc[nH]5)cc4)n3)cc21 [Example 4],> 50000 nM,–,–
Cn1c(C(=O)N2CCC(F)(F)C2)cc2ccc(-c3nccc(Nc4ccc(-c5cnc[nH]5)cc4)n3)cc21 [Example 7],2100 nM,–,–
C[C@H](NC(=O)c1cc2ccc(-c3nccc(Nc4ccc(-c5cnc[nH]5)cc4)n3)cc2n1CCN(C)C)C(F)(F)F [Example 8],10700 nM,–,–
C[C@H](NC(=O)c1cc2ccc(-c3nccc(Nc4ccc(-c5cnc[nH]5)cc4)n3)cc2n1C)C(F)(F)F [Example 9],746 nM,–,–
C[C@H](NC(=O)c1cc2ccc(-c3nccc(Nc4ccc(-c5cnc[nH]5)cc4)n3)cc2n1CC1COC1)C(F)(F)F [Example 10],4000 nM,–,–
Cn1c(C(=O)N2CCCC2)cc2ccc(-c3nccc(Nc4ccc(-c5cnc[nH]5)cc4)n3)cc21 [Example 12],2280 nM,10000 nM,–
CN(C)CCn1c(C(=O)N2CCC(F)(F)C2)cc2ccc(-c3nccc(Nc4ccc(-c5cnc[nH]5)cc4)n3)cc21 [Example 13],4290 nM,10000 nM,–
CN(C)CCn1c(C(=O)N2CC(F)(F)C2)cc2ccc(-c3nccc(Nc4ccc(-c5cn[nH]n5)cc4)n3)cc21 [Example 15],281 nM,–,–
Cn1c(C(=O)N2CCCC2)cc2ccc(-c3nccc(Nc4ccc(-c5cn[nH]n5)cc4)n3)cc21 [Example 16],792 nM,–,–
CN(C)CCn1c(C(=O)N2CCC(F)(F)C2)cc2ccc(-c3nccc(Nc4ccc(-c5cn[nH]n5)cc4)n3)cc21 [Example 18],23200 nM,–,–
O=C(c1cc2ccc(-c3nccc(Nc4ccc(-c5cn[nH]n5)cc4)n3)cc2o1)N1CC(F)(F)C1 [Example 19],2010 nM,10000 nM,–
O=C(c1nc2ccc(-c3nccc(Nc4ccc(-c5cn[nH]n5)cc4)n3)cc2[nH]1)N1CC(F)(F)C1 [Example 22],25200 nM,–,–
O=C(c1cc2c(s1)CN(c1nccc(Nc3ccc(-c4cnc[nH]4)cc3)n1)CC2)N1CC2C(C1)C2(F)F (stereo not drawn) [Example 23],8910 nM,334 nM,–
O=C(c1cc2c(s1)CN(c1nccc(Nc3ccc(-c4cnn[nH]4)cc3)n1)CC2)N1CC2C(C1)C2(F)F (stereo not drawn) [Example 24],1220 nM,207 nM,–
O=C(c1cc2c(s1)CN(c1nccc(Nc3ccc(-c4cnc[nH]4)cc3)n1)CC2)N1CCC(F)(F)C1 [Example 25],6850 nM,–,–
